These results are taken from US20120322812A1, “RUTAECARPINE DERIVATIVES FOR TREATING INSOMNIA” (priority 2011, published 2012).

The series has as its system CYP1A2. In words: MEROD assay in live Hepa1c1c7 cells preincubated with test compound (CYP1A2 induction). It counts as cell-based, mouse. An excerpt:
FIG. 1 illustrates how caffeine is primarily metabolized to paraxanthine via CYP1A2 enzyme in a human, according to some embodiments. The MEROD (methoxyresorufin-O-demethylase) assay measures the activity of the enzyme (CYP1A2) that converts methoxyresorufin (probe substrate) to resorufin (demethylation) in the presence of NADPH. The resulting resorufin concentration can be measured using a fluorescence reader by setting the excitation and emission wavelengths at 544 and 590 nm, respectively.
For MEROD assay in live cells, Hepa1c1c7 cells were cultured in either 6-well or 24-well-plates. For the 24-well plate experiment, after confluent cells were incubated for approximately 20 hours with either resorufin, nitro-resorufin, chloro-resorufin, 3-MC or DMSO (in triplicates), culture media was removed and 180 μL fresh culture media containing […] methoxyresorufin was added per well. After 1 hour incubation at 37° C., 100 μL aliquot was taken from each well and the formation of resorufin was measured by fluorescence. […] After 5 hours incubation at 37° C., 100 μL aliquot was taken from each well, centrifuged at 12,000 g at RT for ˜5 min and the supernatants were placed into wells of a 96-well fluorescence plate and the formation of resorufin was measured by fluorescence.

With `O=c1c2ccc(Cl)cc2nc2n1CCc1c-2[nH]c2ccccc12` [chloro-rutaecarpine], the “formation of resorufin in live cells (MEROD assay)” value (Hepa1c1c7 cells incubated with 2 μM compound, compared to DMSO, 24-well and 6-well plate studies) is “significant difference”; the “formation of resorufin in live cells (MEROD assay)” value (Hepa1c1c7 cells incubated with 10 μM compound) is “no marked difference”.
